This note sets out measurements from patent US10030020B2, “Spirocycle compounds and methods of making and using same” (Abide Therapeutics, Inc., priority 2016, dated 2018).

pIC50: −log10 of the molar value. Read-outs that look alike come from different tables or passages of the source.

Common to all, as to format: biochemical
One assay deals with FAAH (Mus musculus (Mouse), UniProt O08914). The experiment in a line: In vitro competitive activity-based protein profiling (mouse brain membrane fraction or cell lysates), FAAH band. The following applies: for inhibition at 1 µM: read-out: FAAH % Inh 1 μM (mouse); for pIC50: competitive ABPP. As to the method:
(§1) In Vitro Competitive Activity-Based Protein Profiling.
(§2) Proteomes (mouse brain membrane fraction or cell lysates) (50 μL, 1.0 mg/mL total protein concentration) were preincubated with varying concentrations of inhibitors at 37° C. After 30 min, FP—Rh (1.0 μL, 50 μM in DMSO) was added and the mixture was incubated for another 30 min at 37° C. Reactions were quenched with SDS loading buffer (50 μL-4×) and run on SDS-PAGE. Following gel imaging, serine hydrolase activity was determined by measuring fluorescent intensity of gel bands corresponding to MAGL, ABHD6 and FAAH using ImageJ 1.43u software.

The next assay deals with MAGL (Mus musculus (Mouse), UniProt O35678). The assay is described as follows: In vitro competitive activity-based protein profiling (mouse brain membrane fraction or cell lysates), MAGL band. The following applies: for inhibition at 1 µM: read-out: MAGL % Inh 1 μM (mouse); for pIC50: competitive ABPP. As for the experimental part: as §1
Proteomes (mouse brain membrane fraction or cell lysates) (50 μL, 1.0 mg/mL total protein concentration) were preincubated with varying concentrations of inhibitors at 37° C. After 30 min, FP—Rh (1.0 μL, 50 μM in DMSO) was added and the mixture was incubated for another 30 min at 37° C. Reactions were quenched with SDS loading buffer (50 μL-4×) and run on SDS-PAGE.

A further assay deals with ABHD6 (Mus musculus (Mouse), UniProt Q8R2Y0). The assay is described as follows: In vitro competitive activity-based protein profiling (mouse brain membrane fraction or cell lysates), ABHD6 band. As to conditions: for inhibition at 1 µM: read-out: ABHD6 % Inh 1 μM (mouse); for pIC50: competitive ABPP. As to the method: as §1, §2
Chain of ABHD6 (Q8R2Y0 whole entry): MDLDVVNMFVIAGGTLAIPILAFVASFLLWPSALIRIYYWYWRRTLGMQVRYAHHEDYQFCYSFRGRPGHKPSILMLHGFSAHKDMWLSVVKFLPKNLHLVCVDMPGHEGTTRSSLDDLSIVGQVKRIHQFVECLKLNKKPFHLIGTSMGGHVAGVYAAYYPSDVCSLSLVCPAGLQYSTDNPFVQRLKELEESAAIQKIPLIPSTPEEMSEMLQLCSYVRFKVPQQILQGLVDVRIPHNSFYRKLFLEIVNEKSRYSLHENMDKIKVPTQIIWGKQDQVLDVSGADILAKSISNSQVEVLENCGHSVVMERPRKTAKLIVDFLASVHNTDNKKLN

Chain of MAGL (O35678 whole entry): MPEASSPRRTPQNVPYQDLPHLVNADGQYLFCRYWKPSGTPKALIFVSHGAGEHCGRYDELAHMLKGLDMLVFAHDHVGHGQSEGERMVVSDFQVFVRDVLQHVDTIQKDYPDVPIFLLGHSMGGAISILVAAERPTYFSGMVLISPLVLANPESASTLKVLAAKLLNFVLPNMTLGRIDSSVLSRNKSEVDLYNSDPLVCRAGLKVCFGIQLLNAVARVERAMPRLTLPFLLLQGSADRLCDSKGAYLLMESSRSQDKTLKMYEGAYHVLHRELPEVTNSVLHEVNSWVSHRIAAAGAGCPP
Chain of FAAH (O08914 whole entry): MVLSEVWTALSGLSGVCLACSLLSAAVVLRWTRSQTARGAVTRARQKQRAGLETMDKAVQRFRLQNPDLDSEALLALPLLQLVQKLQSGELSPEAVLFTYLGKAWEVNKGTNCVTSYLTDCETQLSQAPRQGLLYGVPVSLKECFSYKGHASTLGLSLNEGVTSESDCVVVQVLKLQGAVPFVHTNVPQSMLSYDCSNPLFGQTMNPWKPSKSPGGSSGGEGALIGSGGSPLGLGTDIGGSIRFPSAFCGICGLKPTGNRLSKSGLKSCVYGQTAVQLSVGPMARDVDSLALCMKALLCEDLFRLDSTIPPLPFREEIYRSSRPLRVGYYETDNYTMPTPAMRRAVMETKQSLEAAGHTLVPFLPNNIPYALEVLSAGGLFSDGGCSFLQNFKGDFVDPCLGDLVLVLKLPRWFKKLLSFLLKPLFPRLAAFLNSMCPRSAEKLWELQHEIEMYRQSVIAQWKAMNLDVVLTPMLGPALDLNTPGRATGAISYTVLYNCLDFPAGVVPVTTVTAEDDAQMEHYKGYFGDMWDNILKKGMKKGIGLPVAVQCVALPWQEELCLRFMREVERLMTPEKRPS

The term pIC50 denotes the IC50 on a negative log10 scale, so that one unit is a factor of ten. Low values mean a high IC50, high ones a low IC50. Consider `O=C(OC(C(F)(F)F)C(F)(F)F)N1CCC2(CCCN2Cc2ccc(N3CCOCC3)c(Cl)c2)CC1` [Example 127, 1,1,1,3,3,3-Hexafluoropropan-2-yl 1-(3-chloro-4-morpholinobenzyl)-1,8-diazaspiro[4.5]decane-8-carboxylate], for which the inhibition at 1 µM at FAAH (mouse proteome) was below 25%; on MAGL (mouse proteome) it was above 75%; at ABHD6 (mouse proteome), 25 to 75%. Also, the pIC50 on FAAH (mouse proteome) and at ABHD6 (mouse proteome) was below 6.00 each time.
With `CC(=O)N1CCCc2cccc(CN3CCC4(CCN(C(=O)OC(C(F)(F)F)C(F)(F)F)CC4)C3)c21` [Example 70, 1,1,1,3,3,3-Hexafluoropropan-2-yl 2-((1-acetyl-1,2,3,4-tetrahydroquinolin-8-yl)methyl)-2,8-diazaspiro[4.5]decane-8-carboxylate], the inhibition at 1 µM on FAAH (mouse proteome) was below 25%; on MAGL (mouse proteome) it was above 75%; at ABHD6 (mouse proteome), at least 75%. At ABHD6 (mouse proteome), the negative-log IC50 (pIC50) was 6.00 to 7.00.
`CC1(C)CC2(CCN(C(=O)OC(C(F)(F)F)C(F)(F)F)CC2)CN1Cc1cccc(OC(F)(F)F)c1N1CCOCC1` [Example 190, 1,1,1,3,3,3-Hexafluoropropan-2-yl 3,3-dimethyl-2-(2-morpholino-3-(trifluoromethoxy)benzyl)-2,8-diazaspiro[4.5]decane-8-carboxylate]: the inhibition at 1 µM at FAAH (mouse proteome) was below 25%; on MAGL (mouse proteome), above 75%; on ABHD6 (mouse proteome), below 25%. For the same compound, the pIC50 is below 6.00 at FAAH (mouse proteome), above 7.00 at MAGL (mouse proteome) and below 6.00 on ABHD6 (mouse proteome).
For `O=C(OC(C(F)(F)F)C(F)(F)F)N1CCC2(CCCN2Cc2ccc(C(F)(F)F)cc2N2CCS(=O)(=O)CC2)CC1` [Example 92, 1,1,1,3,3,3-Hexafluoropropan-2-yl 1-(2-(1,1-dioxidothiomorpholino)-4-(trifluoromethyl)benzyl)-1,8-diazaspiro[4.5]decane-8-carboxylate], the inhibition at 1 µM is below 25% on FAAH (mouse proteome), above 75% on MAGL (mouse proteome) and at least 75% on ABHD6 (mouse proteome). The pIC50 on FAAH (mouse proteome) is below 6.00; on MAGL (mouse proteome), above 7.00; at ABHD6 (mouse proteome), 6.00 to 7.00.
For the compound `CC1(C)CC2(CCN(C(=O)OC(C(F)(F)F)C(F)(F)F)CC2)CN1Cc1cc(Cl)ccc1N1CCOCC1` [Example 187, 1,1,1,3,3,3-Hexafluoropropan-2-yl 2-(5-chloro-2-morpholinobenzyl)-3,3-dimethyl-2,8-diazaspiro[4.5]decane-8-carboxylate], the inhibition at 1 µM on FAAH (mouse proteome) is below 25%; on MAGL (mouse proteome), above 75%; on ABHD6 (mouse proteome) it was at least 75%. Besides, the figures for the negative logarithm of the IC50 (pIC50) on FAAH (mouse proteome), on MAGL (mouse proteome) and on ABHD6 (mouse proteome) were below 6.00, above 7.00 and 6.00 to 7.00, respectively.
As to `CC1(C)CC2(CCN(C(=O)OC(C(F)(F)F)C(F)(F)F)CC2)CN1Cc1ccc(C(F)(F)F)cc1N1CC2COCC2C1` (centres unmarked) [Example 55, 1,1,1,3,3,3-Hexafluoropropan-2-yl 3,3-dimethyl-2-(2-(tetrahydro-1H-furo[3,4-c]pyrrol-5(3H)-yl)-4-(trifluoromethyl)benzyl)-2,8-diazaspiro[4.5]decane-8-carboxylate], the inhibition at 1 µM on FAAH (mouse proteome) is below 25%; at MAGL (mouse proteome), above 75%; on ABHD6 (mouse proteome) it was below 25%. For the same compound, the pIC50 is below 6.00 on FAAH (mouse proteome), above 7.00 on MAGL (mouse proteome) and below 6.00 on ABHD6 (mouse proteome).
For the compound `O=C(O)C1CCN(Cc2cc(CN3CCC4(CCN(C(=O)OC(C(F)(F)F)C(F)(F)F)CC4)C3)ccc2Cl)CC1` [Example 246], the inhibition at 1 µM at FAAH (mouse) is below 25%; at ABHD6 (mouse) it was 25 to 75%.
Turning to `O=C(O)C1CCCCN1c1cc(C(F)(F)F)ccc1CN1CCC2(CCN(C(=O)OC(C(F)(F)F)C(F)(F)F)CC2)C1` (centres unmarked) [Example 224], the inhibition at 1 µM at FAAH (mouse) is below 25%; at MAGL (mouse) it was 25 to 75%; at ABHD6 (mouse) it was below 25%.
Regarding `CC1(C)CC2(CCN(C(=O)OC(C(F)(F)F)C(F)(F)F)CC2)CN1Cc1cccc(CN2CCOCC2)c1F` [Example 191, 1,1,1,3,3,3-Hexafluoropropan-2-yl 2-(2-fluoro-3-(morpholinomethyl)benzyl)-3,3-dimethyl-2,8-diazaspiro[4.5]decane-8-carboxylate], the inhibition at 1 µM at FAAH (mouse proteome) is below 25%; at MAGL (mouse proteome), above 75%; on ABHD6 (mouse proteome) it was 25 to 75%. The negative-log IC50 (pIC50) at FAAH (mouse proteome) is below 6.00; on MAGL (mouse proteome), 6.00 to 7.00; at ABHD6 (mouse proteome) it was below 6.00.
As for `O=C(OC(C(F)(F)F)C(F)(F)F)N1CCC2(CCN(Cc3cccc(N4CCCC4)c3)C2)CC1` [Example 58, 1,1,1,3,3,3-Hexafluoropropan-2-yl 2-(3-(pyrrolidin-1-yl)benzyl)-2,8-diazaspiro[4.5]decane-8-carboxylate], the values for the inhibition at 1 µM on FAAH (mouse proteome), on MAGL (mouse proteome) and at ABHD6 (mouse proteome) were below 25%, above 75% and at least 75%, respectively. For the same compound, the negative logarithm of the IC50 (pIC50) is below 6.00 at FAAH (mouse proteome), 6.00 to 7.00 on MAGL (mouse proteome) and 6.00 to 7.00 on ABHD6 (mouse proteome).
On to `COc1cc(Cl)ccc1CN1CC2(CCN(C(=O)OC(C(F)(F)F)C(F)(F)F)CC2)CC1(C)C` [Example 49, 1,1,1,3,3,3-Hexafluoropropan-2-yl 2-(4-chloro-2-methoxybenzyl)-3,3-dimethyl-2,8-diazaspiro[4.5]decane-8-carboxylate], for which the figures for the inhibition at 1 µM on FAAH (mouse proteome), at MAGL (mouse proteome) and at ABHD6 (mouse proteome) were below 25%, above 75% and below 25%, respectively. For the same compound, the pIC50 at FAAH (mouse proteome) and at ABHD6 (mouse proteome) was below 6.00 each time.
`CC1(C(=O)O)CN(c2cc(C(F)(F)F)ccc2CN2CCCC23CCN(C(=O)OC(C(F)(F)F)C(F)(F)F)CC3)CCO1` (centres unmarked) [Example 260]: the inhibition at 1 µM on FAAH (mouse) and at ABHD6 (mouse) was below 25% each time.
Take `O=C(OC(C(F)(F)F)C(F)(F)F)N1CCC2(CCCN2Cc2cccc(N3C4CCC3COC4)c2Cl)CC1` [Example 109, 1,1,1,3,3,3-Hexafluoropropan-2-yl 1-(3-(3-oxa-8-azabicyclo[3.2.1]octan-8-yl)-2-chlorobenzyl)-1,8-diazaspiro[4.5]decane-8-carboxylate]: the inhibition at 1 µM on FAAH (mouse proteome) is below 25%; on MAGL (mouse proteome), above 75%; on ABHD6 (mouse proteome), below 25%. The negative-log IC50 (pIC50) on FAAH (mouse proteome) was below 6.00; on MAGL (mouse proteome), above 7.00; on ABHD6 (mouse proteome) it was below 6.00.
In the case of `O=C(OC(C(F)(F)F)C(F)(F)F)N1CCC2(CCN(Cc3ccc(N4CCOCC4)c(Cl)c3)C2)CC1` [Example 138, 1,1,1,3,3,3-Hexafluoropropan-2-yl 2-(3-chloro-4-morpholinobenzyl)-2,8-diazaspiro[4.5]decane-8-carboxylate], the inhibition at 1 µM on FAAH (mouse proteome) was below 25%; at MAGL (mouse proteome), above 75%; at ABHD6 (mouse proteome) it was at least 75%. In addition, the figures for the negative logarithm of the IC50 (pIC50) on FAAH (mouse proteome) and on ABHD6 (mouse proteome) were below 6.00 and above 7.00, respectively.
On to `Cc1cc(CN2CCCC23CCN(C(=O)OC(C(F)(F)F)C(F)(F)F)CC3)cc(C(=O)O)c1` [Example 243], for which the inhibition at 1 µM on FAAH (mouse) and on ABHD6 (mouse) was below 25% in each case.
`O=C(O)c1cc(CN2CCCC23CCN(C(=O)OC(C(F)(F)F)C(F)(F)F)CC3)ccc1Cl` [Example 266]: the inhibition at 1 µM on FAAH (mouse) and on ABHD6 (mouse) was below 25% throughout.
Turning to `O=C(O)c1ccc(CN2CCCC23CCN(C(=O)OC(C(F)(F)F)C(F)(F)F)CC3)cc1C(F)(F)F` [Example 182, 4-((8-((1,1,1,3,3,3-Hexafluoropropan-2-yloxy)carbonyl)-1,8-diazaspiro[4.5]decan-1-yl)methyl)-2-(trifluoromethyl)benzoic acid], at FAAH (mouse proteome), the inhibition at 1 µM was below 25% and the pIC50 was below 6.00. Also, on ABHD6 (mouse proteome), the inhibition at 1 µM was below 25% and the pIC50 was below 6.00.
Take `O=C(O)C1CCN(c2cc(F)ccc2CN2CCC3(CCN(C(=O)OC(C(F)(F)F)C(F)(F)F)CC3)C2)CC1` [Example 237]: the inhibition at 1 µM on FAAH (mouse) was below 25%; at ABHD6 (mouse), 25 to 75%.
In the case of `O=C(O)C1CCN(c2cc(Cl)ccc2CN2CCC3(CCN(C(=O)OC(C(F)(F)F)C(F)(F)F)CC3)C2)CC1` [Example 118, 1-(5-chloro-2-((8-(((1,1,1,3,3,3-hexafluoropropan-2-yl)oxy)carbonyl)-2,8-diazaspiro[4.5]decan-2-yl)methyl)phenyl)piperidine-4-carboxylic acid], at FAAH (mouse proteome), the inhibition at 1 µM was below 25% and the pIC50 was below 6.00. Moreover, at ABHD6 (mouse proteome), the inhibition at 1 µM was below 25% and the pIC50 is below 6.00.
On to `O=C(O)c1cc(CN2CCC3(CCN(C(=O)OC(C(F)(F)F)C(F)(F)F)CC3)C2)ccc1C(F)(F)F` [Example 255], for which the figures for the inhibition at 1 µM on FAAH (mouse) and on ABHD6 (mouse) were below 25% and 25 to 75%, respectively.
With `O=C(OC(C(F)(F)F)C(F)(F)F)N1CCC2(CCCN2Cc2cc(N3CCC(C(F)(F)F)CC3)cc(C(F)(F)F)c2)CC1` [Example 44, 1,1,1,3,3,3-Hexafluoropropan-2-yl 1-(3-(trifluoromethyl)-5-(4-(trifluoromethyl)piperidin-1-yl)benzyl)-1,8-diazaspiro[4.5]decane-8-carboxylate], the pIC50 at FAAH (mouse proteome) and at ABHD6 (mouse proteome) was below 6.00 in each case.
